# Assays:
# [1] = test system: polluting algae of the Dianchi water; assay: Experiments on the shore of polluted lake Dianchi: acidization of the water by carbon dioxide; type: in vivo
# Source text: (§1) Subsequent experiments have verified that the extermination occurred when the pH value of the water is reduced to 5.8 or less. Dead algal remains can be filtered out when acidized polluted water by the new filtering system of aquitransistor/filter, and the filtered water is suitable as source of urban water supply. […] Those discoveries and previous developments were patented to teach the use of carbon dioxide as algicide in environmental rehabilitation of polluted lakes and streams for urban water supply. The two Patent applications are:
# The Dianchi water with pH values ranging up to 9 was reduced to less than 6, and the empirical rate was estimated in experiments to reduce the pH value by three units. The amount of dissolving carbon dioxide into alkaline waters to combate pollution is substantial. To suppress the algal growth in streams, ponds, swimming pools or fish tanks, the quantity of carbon dioxide required is small. The purpose is less to reduce carbon dioxide emission, but to maintain the cleanness of the water body. The growth of algae can be suppressed if the pH of water is maintained at 7, through the dissolution of carbon dioxide in water. The requirement is in the range of 10-100 grams carbon dioxide for one cubic-meter volume of water, depending the atmosphere-water interchange rate, and other factors. […] Since the main expenditure will be acidization, which is about 30$ per ton, the cost of maintaining algae-free swimming pool should be less than a few dollars per week. Very small metal containers for acidization of […] to produce carbon dioxide can be attached to fish tanks. The occasional bubbling of carbon dioxide to neutralize the alkalinity of water would not only be functional, but also fascinating to children owning the pet fish, and to their mother would not have to slave every month to clean up the algal pollution. Where medium or small quantifies of carbon dioxide are required, we recommend the use of carbon dioxide produced by the acidization of carbonates. The by-product CaCl2 is useful, but has little commercial value. […]
# [2] = test system: green algae, blue-green algae and other polluting algae; assay: Experiments in Beijing: suppression of algal growth by keeping water pH low; type: in vivo
# Source text: as §1
# The Dianchi water with pH values ranging up to 9 was reduced to less than 6, and the empirical rate was estimated in experiments to reduce the pH value by three units. The amount of dissolving carbon dioxide into alkaline waters to combate pollution is substantial. To suppress the algal growth in streams, ponds, swimming pools or fish tanks, the quantity of carbon dioxide required is small. The purpose is less to reduce carbon dioxide emission, but to maintain the cleanness of the water body. The growth of algae can be suppressed if the pH of water is maintained at 7, through the dissolution of carbon dioxide in water. […] Where medium or small quantifies of carbon dioxide are required, we recommend the use of carbon dioxide produced by the acidization of carbonates. […]
compound,measurement,setting,value
O=C=O [carbon dioxide],extermination of polluting algae after acidization of the water,[1]; Dianchi lake water acidized by carbon dioxide,all be exterminated
same,empirical rate of CO2 to reduce the pH value by three units,"[1]; Dianchi water, pH up to 9 reduced to less than 6",2 kg CO2 per ton water
same,pH of Dianchi water after treatment,"[1]; starting pH values ranging up to 9, 2 kg CO2 per ton water",less than 6 pH
same,pH value of the water at which extermination occurred,[1]; water acidized by carbon dioxide,≤ 5.8 pH
same,pH value of water at which algal growth is suppressed,[2]; pH kept at this value or below,≤ 7.0 pH
same,carbon dioxide requirement to suppress algal growth (pH maintained at 7),"[2]; streams, ponds, swimming pools or fish tanks, depends on atmosphere-water interchange rate",10-100 grams carbon dioxide for one cubic-meter volume of water

# From patent US20090227456A1, “Process for Combating Water Polluted By Algae” (priority 2006, published 2009)
